The values below come from patent publication US12493042B2, “Molecules and methods for iterative polypeptide analysis and processing” (priority 2013, dated 2025).

The target of one series is T1, peptides (Thermus thermophilus, UniProt Q5SGX2, A229N/A231G/F152V/F205A/F336A/G338T/H142N/H143G/H212A/H232D/H287G/I228V/K234Y/K289N/L100D/L154K/L165D/L303D/L340G/M230E/W153G/Y257T).
T1 construct: a truncated version of wild-type Thermus Thermophilus PheRS (residues 86-350)
The series can be described thus: Binding of Phe NAAB mutant to peptides compared with wild-type protein.

Series [1] addresses Edmanase (Edman degradation enzyme; Trypanosoma cruzi cruzain variant C25G/G65S/A138C/L160Y, SEQ ID NO: 29) (Trypanosoma cruzi, UniProt P25779, A260C/A295H/A296K/C147G/E217T/G187S/G216A/L282Y/N191D/Q141S/Q281S/S151A). Format: biochemical. The conditions noted are these: Ed-X-AMC (PITC-derivatized) substrate; 30 degrees; 1 nM-100 nM enzyme; excitation 370 nm, emission 460 nm. An excerpt: (§1) A synthetic gene containing the Edman degradation enzyme was purchased from GenScript. The gene encoded a modified version of the cruzian enzyme of T. cruzi having the following substitution mutations: C25G, G65S, A138C, and L160Y.
(§2) The gene was inserted between an NdeI andan XhoI site in a pet42(a) (Novagen) expression vector and transformed into E. coli, BL-21(De3) chemically competent cells. Protein was then over-expressed following Studier's auto-induction protocol. Bacterial cells were harvested by centrifugation of the cell culture at 5000 rpm and 4° C. for 10 minutes. Cells were then suspended in 1×PBS with 10% glycerol and 6M guanidine chloride, pH 7.4. Cells were then lysed by sonication (15 seconds at 20% power, 8 times on ice). The cell lysate was centrifuged at 18000 rpm, 4 degrees for 20 minutes. The supernatant was then filtered through a 0.2 μm cellulose acetate filter. The filtered lysate was loaded onto a 5 mL HisTrap (Ni-NTA) column and washed with 5 column volumes of binding buffer (50 mM Tris-HCl, 150 mM NaCl, 6M guanidine chloride, 25 mM imidazole). Bound protein was then eluted in 50 mM Tris-HCl, 150 mM NaCl, 6M guanidine chloride, 500 mM imidazole. Purified fractions were prepared for SDS-PAGE analysis by mixing 2 parts sample with 1 part 4× loading dye. Samples were analyzed on 16% SDS-PAGE precast gels, and visualized by Coomassie staining. The purified protein was then refolded by successive, overnight dialyses into 1×PBS containing 5M, 3M, 1M, 0.5M, and 0M guanidine chloride. Protein concentration was determined using the calculated molar extinction coefficient and measuring the A280 on an ND-8000 spectrophotometer (Thermo Fisher Scientific).
(§3) Single amino acid, aminomethylcoumarin (AMC) containing compounds were obtained from BAChem (Bubendorf, Switzerland). These included Arg-AMC, Asn-AMC, Phe-AMC, Met-AMC, Ala-AMC, and Pro-AMC. Phenylisothiocyanate (PITC) was purchased from Thermo-scientific and coupled to the N-terminus of each substrate by incubating for 10 minutes at room temperature in a 100 μL solution of acetonitrile:pyridine:water (10:5:3) with 5 μL of PITC. The derivatized substrate was then dried by rotary evaporation and suspended in 250 μL of 1× Phosphate Buffered Saline (PBS). Inhibitor compound, 1-(2-anilino-5-methyl-1,3-thiazol-4-yl)-ethanone, was ordered from Sigma-Aldrich (St. Louis, MO).
(§4) The ability of the Edman degradation enzyme to perform N-terminal cleavage on six substrates of the form Ed-X-AMC, where Ed denotes the Edman reagent, X is an amino acid from the set (Ala, […], Phe, Met, Pro, Arg), and AMC is the fluorogenic […] group was characterized. Cleavage of the X-AMC bond was monitored by the appearance of fluorescence (FIG. 6).
(§5) All kinetic measurements were performed in a 96-well corning plate on a BioTek Synergy2 plate reader at 30 degrees. Reactions were started by adding 5-20 μL of purified enzyme to 100 μL of 10 mM substrate solution. Final enzyme concentration was between 1 nM and 100 nM, depending on the experiment. Fluorescence of the cleaved product was measured by exciting at 370 nm (30 second intervals for 1-10 hours) and monitoring emissions at 460 nm. A standard curve using AMC from Invitrogen was referenced quantitate the amount of product formation.

In series [2] the target is T2, Edmanase (Edman degradation enzyme, modified cruzain) (Trypanosoma cruzi, UniProt P25779, A260C/C147G/G187S/L282Y).
T2 construct: His tag; made in house; host or cells: E. coli BL-21(De3), pet42(a)
The format is biochemical. The conditions noted are these: PITC-derivatized X-AMC substrate, 30 degrees, excitation 370 nm, emission 460 nm. As for the experimental part:
Single amino acid, aminomethylcoumarin (AMC) containing compounds were obtained from BAChem (Bubendorf, Switzerland). These included Arg-AMC, Asn-AMC, Phe-AMC, Met-AMC, Ala-AMC, and Pro-AMC. Phenylisothiocyanate (PITC) was purchased from Thermo-scientific and coupled to the N-terminus of each substrate by incubating for 10 minutes at room temperature in a 100 μL solution of acetonitrile:pyridine:water (10:5:3) with 5 μL of PITC. The derivatized substrate was then dried by rotary evaporation and suspended in 250 μL of 1× Phosphate Buffered Saline (PBS).
as §4, §5

Series [3] concerns Cc1cc(=O)oc2cc(NC(=O)[C@H](Cc3ccccc3)NC(=S)Nc3ccccc3)ccc12. The series is described as follows: purified protein, by the assay type. The format is biochemical, Trypanosoma cruzi. Particulars: other: Ed-X-AMC (PITC-derivatized) substrate; 30 degrees; 1 nM-100 nM enzyme; excitation 370 nm, emission 460 nm; pH 7.4; 30.0 °C.
Text: as §1, §2, §3, §4, §5

The subject of series [4] is Cc1cc(=O)oc2cc(NC(=O)[C@H](CCCNC(=N)N)NC(=S)Nc3ccccc3)ccc12. The series can be described thus: purified protein, by the assay type. The conditions noted are these: other: Ed-X-AMC (PITC-derivatized) substrate; 30 degrees; 1 nM-100 nM enzyme; excitation 370 nm, emission 460 nm; pH 7.4; 30.0 °C. The format is biochemical, Trypanosoma cruzi.
Text: as §1, §2, §3, §4, §5

In series [5] the target is N-terminal amino acid of peptides. The series can be described thus: Biolayer interferometry binding assays between peptides and purified NAABs. Particulars: 1×PBS; dissociation rate constant divided by association rate constant, 1:1 model; read-out: Measured Affinity Constants.
Protocol: Real time binding assays between peptides and purified NAABs were performed using biolayer interferometry on a Blitz system (Fortebio, Menlo Park, CA). This system monitors interference of light reflected from the surface of a fiber optic sensor to measure the thickness of molecules bound to the sensor surface. Sensors coated with peptides were allowed to bind to the NAABs in 1×PBS at several different protein concentrations. Binding kinetics were calculated using the Blitz software package, which fit the observed binding curves to a 1:1 binding model to calculate the association rate constants. NAABs were allowed to dissociate by incubation of the sensors in 1×PBS. Dissociation curves were fit to a 1:1 model to calculate the dissociation rate constants. Binding affinities were calculated as the kinetic dissociation rate constant divided by the kinetic association rate constant.
Each square in the binding matrix represents the binding affinity for a single NAAB with an N-terminal amino acid as measured by biolayer interferometry. Each row in the matrix contains all the binding data for a single NAAB, and each column contains the binding data for a single N-terminal amino acid (shown by single-letter code).

T1 sequence (Q5SGX2 other isoform, or with tags, fused parts or gaps with the stated changes): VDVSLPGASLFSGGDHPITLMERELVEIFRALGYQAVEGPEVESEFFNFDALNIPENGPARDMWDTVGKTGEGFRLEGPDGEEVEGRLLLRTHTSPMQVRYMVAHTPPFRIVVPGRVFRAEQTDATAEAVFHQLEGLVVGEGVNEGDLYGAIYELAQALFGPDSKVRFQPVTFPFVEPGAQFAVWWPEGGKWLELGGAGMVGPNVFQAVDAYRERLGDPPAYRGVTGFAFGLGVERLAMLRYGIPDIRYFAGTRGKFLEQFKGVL

Turning to `N[C@@H](Cc1ccccc1)C(=O)O` [Phenylalanine], the “binding to peptides compared to the wild-type protein” value at peptides is reported as “Tighter binding”. For the compound `Cc1cc(=O)oc2cc(NC(=O)[C@H](CCCNC(=N)N)NC(=S)Nc3ccccc3)ccc12` [Arginine], the Kcat in series [1] is 0.087 s⁻¹. As a reminder, the Km is the substrate concentration at which the rate is half of its maximum. For the compound `CSCC[C@H](NC(=S)Nc1ccccc1)C(=O)Nc1ccc2c(C)cc(=O)oc2c1` [Methionine], in series [1], the Kcat is 0.54 s⁻¹ and the Km was 272 µM.

As for `C[C@H](N)C(=O)O` [Alanine], in series [2], the Kcat came out at 0.55 s⁻¹ and the Michaelis constant (Km) turned out to be 21.3 µM. A word on the kcat: it is the maximal rate divided by the concentration of active sites. In general, kcat/Km refers to the second-order rate constant that governs catalysis at low substrate concentration. “Edmanase (Edman degradation enzyme; Trypanosoma cruzi cruzain variant C25G/G65S/A138C/L160Y, SEQ ID NO: 29) (Trypanosoma cruzi; A260C/A295H/A296K/C147G/E217T/G187S/G216A/L282Y/N191D/Q141S/Q281S/S151A)”: in series [3], the Michaelis constant (Km) turned out to be 122.8 µM, the turnover number (kcat) was 0.47 s⁻¹ and the kcat/Km worked out at 3800 M⁻¹ s⁻¹. Also, in series [4], the Michaelis constant (Km) turned out to be 167.8 µM. Consider Glutamate, for which, in series [5], the Kd amounted to 2120 nM. As for `O=C(O)[C@@H]1CCCN1` [Proline], in series [2], the Kcat came to 0.0014 s⁻¹ and the Km came out at 252 µM.
